According to PubChem BioAssay AID248 (DTP/NCI, 2004):
Inconclusive results and toxic doses are left out. Cut-off read from the data, not from the text of the source: active = T/C of 150% or more; inactive = T/C below 125%.

Tested on: L1210 leukemia ip in BDF1 mice, survival T/C
Assay: NCI In Vivo Anticancer Drug Screen. Data for tumor model L1210 Leukemia (intraperitoneal) in B6D2F1 (BDF1) mice
Conditions: endpoint: mean survival time, higher = longer survival
In short: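 Survival endpoint. Drug-treated group vs vehicle group, expressed as T divided by C. Tumor passaged by transplantation.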

[1] = dose: 100.0 mg/kg/injection, schedule: Q01DX001 (ip), vehicle: saline
[2] = dose: 200.0 mg/kg/injection, schedule: Q01DX001 (ip), vehicle: saline
[3] = dose: 100.0 mg/kg/injection, schedule: Q01DX009 (ip), vehicle: Klucel (hydroxypropylcellulose) (HPC)
[4] = dose: 200.0 mg/kg/injection, schedule: Q01DX009 (ip), vehicle: Klucel (hydroxypropylcellulose) (HPC)
[5] = dose: 100.0 mg/kg/injection, schedule: Q01DX009 (ip), vehicle: saline
[6] = dose: 100.0 mg/kg/injection, schedule: Q04DX003 (ip), vehicle: Klucel (hydroxypropylcellulose) (HPC)
[7] = dose: 200.0 mg/kg/injection, schedule: Q04DX003 (ip), vehicle: Klucel (hydroxypropylcellulose) (HPC)
[8] = dose: 400.0 mg/kg/injection, schedule: Q04DX003 (ip), vehicle: Klucel (hydroxypropylcellulose) (HPC)
[9] = dose: 400.0 mg/kg/injection, schedule: Q01DX001 (ip), vehicle: saline
[10] = dose: 100.0 mg/kg/injection, schedule: Q04DX003 (ip), vehicle: saline
[11] = dose: 200.0 mg/kg/injection, schedule: Q04DX003 (ip), vehicle: saline

Measured: T/C

O=C(O)/C=C(\Cl)CC(=O)O
inactive: [1] 102 % of control | [2] 96 % of control

CCOC(=O)c1cnc(C(Cl)(Cl)Cl)[nH]c1=O
inactive: dose: 100.0 mg/kg/injection, schedule: Q01DX001 (ip), vehicle: Klucel (hydroxypropylcellulose) (HPC) 94 % of control | dose: 200.0 mg/kg/injection, schedule: Q01DX001 (ip), vehicle: Klucel (hydroxypropylcellulose) (HPC) 99 % of control | dose: 400.0 mg/kg/injection, schedule: Q01DX001 (ip), vehicle: Klucel (hydroxypropylcellulose) (HPC) 92 % of control

CCCCCC/C=C/C#CCCCCCCCC(=O)O
inactive: dose: 37.5 mg/kg/injection, schedule: Q01DX009 (ip), vehicle: Klucel (hydroxypropylcellulose) (HPC) 105 % of control | dose: 75.0 mg/kg/injection, schedule: Q01DX009 (ip), vehicle: Klucel (hydroxypropylcellulose) (HPC) 98 % of control | dose: 150.0 mg/kg/injection, schedule: Q01DX009 (ip), vehicle: Klucel (hydroxypropylcellulose) (HPC) 102 % of control

CCc1ccc(NS(=O)(=O)c2ccc3ccccc3c2)cc1
inactive: [3] 107 % of control | [4] 107 % of control | dose: 400.0 mg/kg/injection, schedule: Q01DX009 (ip), vehicle: Klucel (hydroxypropylcellulose) (HPC) 98 % of control

NC(N)=N/N=C/c1cccc([N+](=O)[O-])c1
inactive: dose: 15.0 mg/kg/injection, schedule: Q01DX Z (ip), vehicle: carboxymethylcellulose (CMC) 98 % of control | dose: 30.0 mg/kg/injection, schedule: Q01DX Z (ip), vehicle: carboxymethylcellulose (CMC) 93 % of control | dose: 60.0 mg/kg/injection, schedule: Q01DX Z (ip), vehicle: carboxymethylcellulose (CMC) 90 % of control

CNc1ncnc2c1ncn2C1CC(CO)C(O)C1O (centres undefined)
inactive: [5] 98 % of control

Cc1[nH]c(=S)[nH]c(=O)c1CCC(C)C
inactive: [6] 113 % of control | [7] 100 % of control | [8] 106 % of control

CC(OC(=O)c1ccccc1)C(N)=S (centres undefined)
inactive: [1] 102 % of control | dose: 100.0 mg/kg/injection, schedule: Q01DX009 (ip), vehicle: acetone 93 % of control | dose: 100.0 mg/kg/injection, schedule: Q04DX003 (ip), vehicle: acetone 101 % of control | [2] 93 % of control | dose: 200.0 mg/kg/injection, schedule: Q01DX009 (ip), vehicle: acetone 95 % of control | dose: 200.0 mg/kg/injection, schedule: Q04DX003 (ip), vehicle: acetone 102 % of control | [9] 103 % of control | dose: 400.0 mg/kg/injection, schedule: Q01DX009 (ip), vehicle: acetone 96 % of control | dose: 400.0 mg/kg/injection, schedule: Q04DX003 (ip), vehicle: acetone 102 % of control

Cc1ccccc1C(Cc1ccc(N2C(N)=NC(N)=NC2(C)C)cc1)C(=O)Nc1ccc(S(=O)(=O)F)cc1 (centres undefined)
inactive: [6] 98 % of control | [7] 96 % of control | [8] 88 % of control

Cc1ccc(CNC2=C(Cl)C(=O)c3ccccc3C2=O)cc1C
inactive: dose: 12.5 mg/kg/injection, schedule: Q04DX002 (ip), vehicle: Klucel (hydroxypropylcellulose) (HPC) 92 % of control | dose: 25.0 mg/kg/injection, schedule: Q04DX002 (ip), vehicle: Klucel (hydroxypropylcellulose) (HPC) 87 % of control

CCS(=O)(=O)C(=CN(C)C)S(=O)(=O)CC
inactive: dose: 75.0 mg/kg/injection, schedule: Q04DX003 (ip), vehicle: saline 97 % of control | dose: 150.0 mg/kg/injection, schedule: Q04DX003 (ip), vehicle: saline 97 % of control | dose: 300.0 mg/kg/injection, schedule: Q04DX003 (ip), vehicle: saline 92 % of control

Cc1cccc(=O)n1CCC#N
inactive: [5] 96 % of control | [10] 101 % of control | dose: 200.0 mg/kg/injection, schedule: Q01DX009 (ip), vehicle: saline 106 % of control | [11] 93 % of control | dose: 400.0 mg/kg/injection, schedule: Q01DX009 (ip), vehicle: saline 112 % of control | dose: 400.0 mg/kg/injection, schedule: Q04DX003 (ip), vehicle: saline 106 % of control

O=C(Oc1ccc(Cl)cc1)c1ccc(C(=O)Oc2ccc(Cl)cc2)cc1
inactive: dose: 75.0 mg/kg/injection, schedule: Q01DX009 (ip), vehicle: saline sonified 93 % of control | [6] 100 % of control | dose: 150.0 mg/kg/injection, schedule: Q01DX009 (ip), vehicle: saline sonified 91 % of control | [7] 97 % of control | dose: 300.0 mg/kg/injection, schedule: Q01DX009 (ip), vehicle: saline sonified 87 % of control | [8] 92 % of control

S=C=NCc1ccc(Cl)cc1
inactive: dose: 6.25 mg/kg/injection, schedule: Q01DX009 (ip), vehicle: Klucel (hydroxypropylcellulose) (HPC) 103 % of control | dose: 12.5 mg/kg/injection, schedule: Q01DX009 (ip), vehicle: Klucel (hydroxypropylcellulose) (HPC) 92 % of control | dose: 25.0 mg/kg/injection, schedule: Q01DX009 (ip), vehicle: Klucel (hydroxypropylcellulose) (HPC) 95 % of control

CSc1nc2ccc(S(=O)(=O)O)cc2s1
inactive: dose: 50.0 mg/kg/injection, schedule: Q01DX009 (ip), vehicle: Klucel (hydroxypropylcellulose) (HPC) 104 % of control | [3] 96 % of control | [4] 97 % of control

NCCCCNc1ncnc2c1ncn2C1OC(CO)C(O)C1O (centres undefined)
inactive: dose: 100.0 mg/kg/injection, schedule: Q01DX005 (ip), vehicle: saline 104 % of control | dose: 200.0 mg/kg/injection, schedule: Q01DX005 (ip), vehicle: saline 116 % of control

CC(C)N(C(=O)Nc1cccc2ccccc12)c1ccccc1
inactive: dose: 100.0 mg/kg/injection, schedule: Q01DX009 (ip), vehicle: gum acacia 97 % of control | dose: 100.0 mg/kg/injection, schedule: Q04DX003 (ip), vehicle: gum acacia 110 % of control | dose: 200.0 mg/kg/injection, schedule: Q01DX009 (ip), vehicle: gum acacia 96 % of control | dose: 200.0 mg/kg/injection, schedule: Q04DX003 (ip), vehicle: gum acacia 102 % of control | dose: 400.0 mg/kg/injection, schedule: Q01DX009 (ip), vehicle: gum acacia 99 % of control | dose: 400.0 mg/kg/injection, schedule: Q04DX003 (ip), vehicle: gum acacia 104 % of control

CCOC(=O)c1nc2c(OC)nn(O)cc-2c1[N+](=O)[O-]
inactive: dose: 12.5 mg/kg/injection, schedule: Q04DX002 (ip), vehicle: saline with Tween-80 92 % of control | dose: 25.0 mg/kg/injection, schedule: Q04DX002 (ip), vehicle: saline with Tween-80 99 % of control

c1ccc(C2(c3ccccc3)c3ccc([nH]3)C(c3ccccc3)(c3ccccc3)c3ccc([nH]3)C(c3ccccc3)(c3ccccc3)c3ccc([nH]3)C(c3ccccc3)(c3ccccc3)c3ccc2[nH]3)cc1
inactive: [1] 97 % of control | [2] 100 % of control | [9] 100 % of control

CC(C)(C)OC(=O)NCCCCC(NC(=O)OCc1ccccc1)C(=O)Oc1ccc([N+](=O)[O-])cc1 (centres undefined)
inactive: dose: 100.0 mg/kg/injection, schedule: Q01DX009 (ip), vehicle: saline with Tween-80 88 % of control | dose: 200.0 mg/kg/injection, schedule: Q01DX009 (ip), vehicle: saline with Tween-80 93 % of control

CCC1(O)C(=O)OCc2c1ccnc2Cl (centres undefined)
inactive: dose: 50.0 mg/kg/injection, schedule: Q04DX003 (ip), vehicle: saline 105 % of control | [10] 116 % of control | [11] 103 % of control

Nc1ncnc2nc(N=Nc3ccc(C(=O)O)c(O)c3)[nH]c12
inactive: [6] 96 % of control | [7] 105 % of control | [8] 102 % of control
